According to patent publication US8642508B2, “Complex for use in stabilizing herbicidal compositions and methods for synthesizing and using” (Bayer Cropscience LP, priority 2005, dated 2014):

What was measured:
Format in all cases: physicochemical
[1] = Long-term storage stability, Comparative Example 3 emulsifiable concentrate (triethylamine buffer); conditions: Comparative Example 3 formulation
Procedure: An emulsifiable concentrate of fenoxaprop p-ethyl, mefenpyr diethyl, and pyrasulfotole was prepared. Triethylamine, a buffer that is not capable of complexing or forming a coordination complex or hydrogen bonding, was selected as the buffer. The mixture of Table 5 was prepared by mixing the liquid ingredients, then the solid ingredients at 50° C.
(§1) The mixture was tested for long-term storage stability by subjecting separate samples to different temperatures for eight weeks.

[2] = Long-term storage stability, Comparative Example 2 mixture (no buffer); conditions: Comparative Example 2 formulation
Procedure: A mixture of fenoxaprop p-ethyl, mefenpyr diethyl, pyrasulfotole, and fillers was prepared in similar manner as in Table 1 but without a buffer system of the invention (see Table 3).
as §1

[3] = Long-term storage stability, Comparative Example 6 mixture with bromoxynil mixed esters (no buffer); conditions: Comparative Example 6 formulation
Procedure: as §1

[4] = Long-term storage stability 1 year room temperature, Example 7 emulsifiable concentrate (triethanolamine + DBSCa); conditions: Example 7 formulation; 1 year @ room temp
Procedure: In this example, an emulsifiable concentrate of fenoxaprop p-ethyl, mefenpyr diethyl, pyrasulfotole and bromoxynil mixed esters was prepared. Triethanolamine, a buffer that is capable of hydrogen bonding, was selected as the buffer. Dodecylbenzenesulfontate calcium, also known as DBSCa was also used to provide a calcium cation for the complex. The mixture of Table 13 was prepared by mixing the liquid ingredients, then the solid ingredients at 50° C.
The mixture was tested for long-term storage stability by subjecting separate samples to room temperatures for 1 year.

[5] = Long-term storage stability, Comparative Example 5 emulsifiable concentrate with bromoxynil mixed esters (triethylamine buffer); conditions: Comparative Example 5 formulation
Procedure: An emulsifiable concentrate of fenoxaprop p-ethyl, mefenpyr diethyl, pyrasulfotole and bromoxynil mixed esters was prepared. Triethylamine, a buffer that is not capable of complexing was selected as the buffer. The mixture of Table 9 was prepared by mixing the liquid ingredients, then the solid ingredients at 50° C.
as §1

[6] = Long-term storage stability, Example 4 emulsifiable concentrate with bromoxynil mixed esters (triethanolamine buffer); conditions: Example 4 formulation
Procedure: Triethanolamine, a buffer capable of complexing was selected as the buffer. The mixture of Table 7 was prepared by mixing the liquid ingredients, then the solid ingredients at 50° C.
as §1

[7] = Long-term storage stability, Comparative Example 1 emulsifiable concentrate (triethanolamine buffer); conditions: Comparative Example 1 formulation
Procedure: An emulsifiable concentrate of fenoxaprop-ethyl, mefenpyr diethyl, and pyrasulfotole and fillers was prepared. Triethanolamine, a buffer capable of hydrogen bonding, was selected as the buffer. The mixture of Table 1 was prepared by mixing the liquid ingredients, then the solid ingredients at 50° C.
as §1

[8] = Long-term storage stability, Example 8 mixture (triethanolamine, without DBSCa); conditions: Example 8 formulation
Procedure: as §1

[9] = 8 weeks @ 40° C., listed as pyrasulfotole

## CCOC(=O)[C@@H](C)Oc1ccc(Oc2nc3ccc(Cl)cc3o2)cc1 [Fenoxaprop p-ethyl, fenoxaprop p-ethyl]
[1]; 8 weeks @ 0° C.
  Avg. Wt % active ingredient: 2.93 Wt %
[1]; 8 weeks @ 40° C.
  Avg. Wt % active ingredient: 2.80 Wt %
  change from 0° C.: −4.37%
[1]; 8 weeks @ 50° C.
  Avg. Wt % active ingredient: 2.74 Wt %
  change from 0° C.: −6.39%
[1]; 8 weeks @ room temp.
  Avg. Wt % active ingredient: 2.89 Wt %
  change from 0° C.: −1.19%
[2]; 8 weeks @ 0° C.
  Avg. Wt % active ingredient: 8.20 Wt %
[2]; 8 weeks @ 40° C.
  Avg. Wt % active ingredient: 2.64 Wt %
  change from 0° C.: −67.80%
[2]; 8 weeks @ 50° C.
  Avg. Wt % active ingredient: 0.91 Wt %
  change from 0° C.: −88.90%
[2]; 8 weeks @ room temp.
  Avg. Wt % active ingredient: 6.49 Wt %
  change from 0° C.: −20.85%
[3]; 8 weeks @ 0° C.
  Avg. Wt % active ingredient: 6.97 Wt %
[3]; 8 weeks @ 40° C.
  Avg. Wt % active ingredient: 2.34 Wt %
  change from 0° C.: −66.43%
[3]; 8 weeks @ room temp.
  Avg. Wt % active ingredient: 6.15 Wt %
  change from 0° C.: −11.76%
[4]
  Avg. Wt % active ingredient: 7.95 Wt %
  Change from expected: −0.625%
[5]; 8 weeks @ 0° C.
  Avg. Wt % active ingredient: 4.30 Wt %
[5]; 8 weeks @ 40° C.
  Avg. Wt % active ingredient: 4.33 Wt %
  change from 0° C.: 0.68%
[5]; 8 weeks @ room temp.
  Avg. Wt % active ingredient: 4.33 Wt %
  change from 0° C.: 0.07%
[6]; 8 weeks @ 0° C.
  Avg. Wt % active ingredient: 4.32 Wt %
[6]; 8 weeks @ 40° C.
  Avg. Wt % active ingredient: 3.96 Wt %
  change from 0° C.: −8.25%
[7]; 8 weeks @ 0° C.
  Avg. Wt % active ingredient: 9.41 Wt %
[7]; 8 weeks @ 40° C.
  Avg. Wt % active ingredient: 9.00 Wt %
  change from 0° C.: −4.31%
[7]; 8 weeks @ 50° C.
  Avg. Wt % active ingredient: 8.58 Wt %
  change from 0° C.: −8.83%
[7]; 8 weeks @ room temp.
  Avg. Wt % active ingredient: 9.34 Wt %
  change from 0° C.: −0.69%
[8]; 8 weeks @ 0° C.
  Avg. Wt % active ingredient: 4.33 Wt %
[8]; 8 weeks @ 40° C.
  Avg. Wt % active ingredient: 4.00 Wt %
  change from 0° C.: −5.75%

## CCCCCCC(=O)Oc1c(Br)cc(C#N)cc1Br [Bromoxynil Heptanoate Esters, bromoxynil heptanoate]
[4]
  Avg. Wt % active ingredient: 12.47 Wt %
  Change from expected: −3.03%

## Cc1nn(C)c(O)c1C(=O)c1ccc(C(F)(F)F)cc1S(C)(=O)=O [Pyrasulfotole, pyrasulfotole]
[1]; 8 weeks @ 0° C.
  Avg. Wt % active ingredient: 5.38 Wt %
[1]; 8 weeks @ 40° C.
  Avg. Wt % active ingredient: 5.43 Wt %
  change from 0° C.: 0.85%
[1]; 8 weeks @ 50° C.
  Avg. Wt % active ingredient: 5.60 Wt %
  change from 0° C.: 4.07%
[1]; 8 weeks @ room temp.
  Avg. Wt % active ingredient: 5.46 Wt %
  change from 0° C.: 1.51%
[2]; 8 weeks @ 0° C.
  Avg. Wt % active ingredient: 4.76 Wt %
[2]; 8 weeks @ 40° C.
  Avg. Wt % active ingredient: 4.69 Wt %
  change from 0° C.: −1.47%
[2]; 8 weeks @ 50° C.
  Avg. Wt % active ingredient: 4.54 Wt %
  change from 0° C.: −4.62%
[2]; 8 weeks @ room temp.
  Avg. Wt % active ingredient: 4.75 Wt %
  change from 0° C.: −0.21%
[3]; 8 weeks @ 0° C.
  Avg. Wt % active ingredient: 3.26 Wt %
[3]; 8 weeks @ 40° C.
  Avg. Wt % active ingredient: 2.81 Wt %
  change from 0° C.: −13.8%
[3]; 8 weeks @ room temp.
  Avg. Wt % active ingredient: 3.01 Wt %
  change from 0° C.: −7.67%
[4]
  Avg. Wt % active ingredient: 3.14 Wt %
  Change from expected: −3.083%
[5]; 8 weeks @ 0° C.
  Avg. Wt % active ingredient: 1.38 Wt %
[5]; 8 weeks @ 40° C.
  Avg. Wt % active ingredient: 1.26 Wt %
  change from 0° C.: −9.04%
[5]; [9]
  change from 0° C.: −9.04%
[5]; 8 weeks @ room temp.
  Avg. Wt % active ingredient: 1.30 Wt %
  change from 0° C.: −5.80%
[6]; 8 weeks @ 0° C.
  Avg. Wt % active ingredient: 1.42 Wt %
[6]; 8 weeks @ 40° C.
  Avg. Wt % active ingredient: 1.40 Wt %
  change from 0° C.: −1.30%
[6]; [9]
  change from 0° C.: −1.30%
[7]; 8 weeks @ 0° C.
  Avg. Wt % active ingredient: 5.57 Wt %
[7]; 8 weeks @ 40° C.
  Avg. Wt % active ingredient: 5.53 Wt %
  change from 0° C.: −0.82%
[7]; 8 weeks @ 50° C.
  Avg. Wt % active ingredient: 5.51 Wt %
  change from 0° C.: −1.12%
[7]; 8 weeks @ room temp.
  Avg. Wt % active ingredient: 5.67 Wt %
  change from 0° C.: 1.71%
[8]; 8 weeks @ 0° C.
  Avg. Wt % active ingredient: 1.74 Wt %
[8]; 8 weeks @ 40° C.
  Avg. Wt % active ingredient: 1.65 Wt %
  change from 0° C.: −4.81%
